The target in test [1] is T1, IKZF3 Aiolos (Homo sapiens, UniProt Q96SW2+Q9UKT9). Nature of the test: Jurkat Cellular Degradation Assay (Aiolos). Type of test: cell-based. Also on record: endogenous in cells; host or cells: Jurkat cells. To be noted: Jurkat cells, 72 h; concentration reducing protein level by 50% compared to DMSO alone. As to the method: (§1) Jurkat cells were plated at 80,000 cells/well in 40 μL RPMI+10% FBS in a 384-well cell culture plate prior to using acoustic dispensing technology for adding a compound of interest. Cell cultures were incubated for 72 h at 37° C. and 5% CO2. In order to facilitate analysis, cell cultures were spun down at 200 rpm for 5 min and the supernatant was discarded. After shaking the plate to dislodge the cell pellet, cells were resuspended in 50 μL of Fixation Buffer (eBioscience FoxP3 buffer set 00-5523-00) for 60 min at room temperature. After centrifuging and discarding the supernatant, cells were permeabilized with 50 μL of Permeabilization buffer (eBioscience FoxP3 buffer set 00-5523-00) for 10 min at room temperature. Following permeabilization, cells were spun down and the supernatant was replaced with 20 μL fluorescently labelled antibodies against Helios, Ikaros and Aiolos or corresponding Isotype controls in 1× Permeabilization buffer (Ikaros-Alexa488 [Biolegend, Cat #368408, 1:50], Helios-PE [CST, Cat #29360, 1:50], Aiolos-Alexa647 [Biolegend, Cat #371106 Biolegend, 1:25]) and staining reactions were incubated for 1 h at room temperature while protected from light. Subsequently, 30 μL of 1× Permeabilization buffer was added prior to centrifuging the cells and discarding the supernatant. Stained cells were resuspended in 25 μL of flow cytometry staining buffer [PBS+0.2% bovine serum albumin (BSA)] and analyzed using an Intellicyt Ique Plus flow cytometer.
(§2) Table A-1 lists the maximum observed degradation of the IKZF1 protein, IKZF2 protein, and IKZF3 protein as measured in the Jurkat Cellular Degradation assay. The results in Table A-I were rounded to two digits. In the Jurkat Cellular Degradation assay, a value of 100% indicated no detectable protein remaining or complete degradation of the protein; and a value of 0% indicated no detectable degradation of the protein by the test compound.

Test [2] has as its target T2, IKZF1 Ikaros (Homo sapiens, UniProt Q13422+Q96SW2). In words: Human CD8+ T Cell Reprogramming (Degradation) Assay (Ikaros). In kind it is cell-based. Also on record: Cryopreserved healthy donor human peripheral blood mononuclear cells (PBMC); endogenous in cells; host or cells: CD8+ T cells within healthy donor human PBMC. Conditions: CD8+ T cells, human PBMC, 24 h; concentration reducing protein level by 50% compared to DMSO alone. As to the method: (§3) Cryopreserved healthy donor human peripheral blood mononuclear cells (PBMC) from healthy donors were thawed and seeded at 500,000 cells/well of 96-well round bottom plates in RPMI 1640 media (Gibco) supplemented with 10% FBS, Pen/Strep (Gibco), MEM-NEAA (Gibco), and sodium pyruvate (Gibco). Cells were treated with titrated doses of compound for 24 hours at 37° C., 5% CO2 before analyzing by flow cytometry.
(§4) For flow cytometry staining, cells were washed twice with flow cytometry staining buffer (Thermo Fisher) and incubated in Human Tru-stain Fc block (Biolegend) for 10 minutes before adding eFluor780 viability dye (Thermo Fisher) and surface marker antibody cocktail containing LD-eFluor780, CD3-BUV-395, CD4-BUV805, CD8-FITC, and CD25-BV605 for 30 minutes at 4° C. Cells were then fixed and permeabilized by incubation with permeabilization buffer (eBioscience FoxP3 buffer set 00-5523-00) for 30 minutes at 4° C. as per the kit manufacturer's instructions. Cells were washed twice with the Perm/Wash buffer supplied in the kit as per the manufacturer's instructions and incubated overnight at 4° C. with an intracellular antibody cocktail comprised of antibodies specific for the transcription factors (i.e., Foxp3-BV421, HELIOS-PE-Cy7, EOS-PE, IKAROS-PECF594, AIOLOS-AF647). Cells were washed twice with Perm/Wash buffer and resuspended in flow cytometry staining buffer (Thermo Fisher) prior to acquisition. Sample acquisition and analysis was performed using a BD LSRFortessa (BD Biosciences) flow cytometer. Single-stain controls for each fluorochrome were prepared using UltraComp eBead Compensation Beads (Thermo Fisher). Data were analyzed using FlowJo version 10 and GraphPad Prism Software.
(§5) Table D-1 lists the maximum observed degradation of the IKZF1 protein and IKZF3 protein as measured in the Human CD8^+ T Cell Reprogramming assay. The results in Table D-1 were rounded to two digits. In the Human CD8^+ T Cell Reprogramming assay, a value of 100% indicated no detectable protein remaining or complete degradation of the protein; and a value of 0% indicated no detectable degradation of the protein by the test compound.

Test [3] has as its target T2, IKZF1 Ikaros. In words: Human Regulatory T Cell Degradation Assay (Ikaros). Type of test: cell-based. To be noted: human regulatory T cells, 20 h; concentration reducing protein level by 50% compared to DMSO alone. As to the method:
Cryopreserved human regulatory T cells were thawed in RPMI+10% FBS+20 ng/mL IL-2. After being spun at 1200 rpm for 5 mins, the cells were resuspended in RPMI+10% FBS+20 ng/ml and rested at 37° C. with 5% CO2 for 3 hours. The cells were then plated at 40,000 cells/well in 40 μL RPMI+10% FBS+20 ng/mL human IL-2 in a 384 well cell culture plate prior to using acoustic dispensing technology (ECHO 555) for adding compounds of interest. Cell cultures were incubated for 20 hours at 37° C. and 5% CO2. In order to facilitate analysis, cell cultures were spun down at 1200 rpm for 5 minutes and the supernatant was discarded using an EL406 plate washer. After washing three times with […] PBS, cell pellets were resuspended in 50 μL of […] viability staining solution (Life Technologies, Cat #L34975) and incubated for 30 minutes on ice protected from light. Cells were washed three times with 70 μL PBS+0.5% BSA using an EL406 plate washer. After shaking the plate to dislodge the cell pellet, cells were resuspended in 50 μL of Fixation Buffer (eBioScience FoxP3 buffer set 00-5523-00) for 60 minutes at room temperature. After centrifuging and discarding the supernatant, cells were permeabilized with 50 μL of permeabilization buffer (eBioScience FoxP3 buffer set 00-5523-00) for 10 minutes at room temperature. Following permeabilization, cells were spun down and the supernatant was replaced with 30 μL fluorescently labelled antibodies against the intracellular targets Helios (Helios-APC [BioLegend, Cat #137222, 1:50])]), Aiolos, and Ikaros 1× Permeabilization buffer and staining reactions were incubated for 1 hour at room temperature; protected from light. Subsequently, […] Permeabilization buffer was added prior to centrifuging the cells and discarding the supernatant. Stained cells were resuspended in 30 μL of flow cytometry staining buffer (PBS+0.5% BSA) and analyzed using an Intellicyt Ique Plus flow cytometer.
Table B-1 lists the maximum observed degradation of the IKZF1 protein and IKZF2 protein as measured in the Human Regulatory T Cell Degradation assay. The results in Table B-1 were rounded to two digits. In the Human Regulatory T Cell Degradation assay, a value of 100% indicated no detectable protein remaining or complete degradation of the protein; and a value of 0% indicated no detectable degradation of the protein by the test compound.

For test [4], the target named is T2, IKZF1 Ikaros. Nature of the test: Jurkat Cellular Degradation Assay (Ikaros). Type of test: cell-based. The arrangement: endogenous in cells; host or cells: Jurkat cells. To be noted: Jurkat cells, 72 h; concentration reducing protein level by 50% compared to DMSO alone. As to the method:
as §1, §2

Test [5] has as its target T1, IKZF3 Aiolos. Nature of the test: Human CD8+ T Cell Reprogramming (Degradation) Assay (Aiolos). In kind it is cell-based. The arrangement: Cryopreserved healthy donor human peripheral blood mononuclear cells (PBMC); endogenous in cells; host or cells: CD8+ T cells within healthy donor human PBMC. Conditions: CD8+ T cells, human PBMC, 24 h; concentration reducing protein level by 50% compared to DMSO alone. As to the method: as §3, §4, §5

In test [6] the test system is solid tumors. To be noted: sometimes; patients with solid tumors / advanced malignancies; cited from earlier work.

Bounds are passed on as bounds.

T1 sequence (Q9UKT9 whole entry): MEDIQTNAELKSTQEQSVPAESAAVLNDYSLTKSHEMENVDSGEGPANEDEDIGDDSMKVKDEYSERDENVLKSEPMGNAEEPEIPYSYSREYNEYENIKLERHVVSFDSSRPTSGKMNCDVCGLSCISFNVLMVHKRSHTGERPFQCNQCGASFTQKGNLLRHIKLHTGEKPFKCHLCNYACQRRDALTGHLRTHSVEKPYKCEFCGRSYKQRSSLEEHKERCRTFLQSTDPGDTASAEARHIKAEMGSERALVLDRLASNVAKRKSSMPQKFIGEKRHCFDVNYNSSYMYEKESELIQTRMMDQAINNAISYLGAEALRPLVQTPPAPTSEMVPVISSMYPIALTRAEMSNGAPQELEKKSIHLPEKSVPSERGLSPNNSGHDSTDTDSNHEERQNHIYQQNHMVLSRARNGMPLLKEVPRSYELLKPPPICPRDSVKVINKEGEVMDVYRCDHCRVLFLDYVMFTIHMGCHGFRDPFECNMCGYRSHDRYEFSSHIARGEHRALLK
T1 sequence (Q96SW2 whole entry): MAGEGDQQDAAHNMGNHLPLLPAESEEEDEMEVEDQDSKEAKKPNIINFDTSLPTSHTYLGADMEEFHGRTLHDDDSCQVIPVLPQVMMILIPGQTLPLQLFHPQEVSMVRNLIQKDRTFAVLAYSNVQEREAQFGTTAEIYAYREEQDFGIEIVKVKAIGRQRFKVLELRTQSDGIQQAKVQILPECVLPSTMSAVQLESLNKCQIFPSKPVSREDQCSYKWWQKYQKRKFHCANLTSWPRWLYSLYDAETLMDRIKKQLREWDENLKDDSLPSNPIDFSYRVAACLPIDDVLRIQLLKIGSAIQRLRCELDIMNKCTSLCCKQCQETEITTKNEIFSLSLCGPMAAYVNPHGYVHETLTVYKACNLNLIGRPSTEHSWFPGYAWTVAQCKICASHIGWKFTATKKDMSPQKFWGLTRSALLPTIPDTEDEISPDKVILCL
T1 sequence (Q16531 whole entry partner): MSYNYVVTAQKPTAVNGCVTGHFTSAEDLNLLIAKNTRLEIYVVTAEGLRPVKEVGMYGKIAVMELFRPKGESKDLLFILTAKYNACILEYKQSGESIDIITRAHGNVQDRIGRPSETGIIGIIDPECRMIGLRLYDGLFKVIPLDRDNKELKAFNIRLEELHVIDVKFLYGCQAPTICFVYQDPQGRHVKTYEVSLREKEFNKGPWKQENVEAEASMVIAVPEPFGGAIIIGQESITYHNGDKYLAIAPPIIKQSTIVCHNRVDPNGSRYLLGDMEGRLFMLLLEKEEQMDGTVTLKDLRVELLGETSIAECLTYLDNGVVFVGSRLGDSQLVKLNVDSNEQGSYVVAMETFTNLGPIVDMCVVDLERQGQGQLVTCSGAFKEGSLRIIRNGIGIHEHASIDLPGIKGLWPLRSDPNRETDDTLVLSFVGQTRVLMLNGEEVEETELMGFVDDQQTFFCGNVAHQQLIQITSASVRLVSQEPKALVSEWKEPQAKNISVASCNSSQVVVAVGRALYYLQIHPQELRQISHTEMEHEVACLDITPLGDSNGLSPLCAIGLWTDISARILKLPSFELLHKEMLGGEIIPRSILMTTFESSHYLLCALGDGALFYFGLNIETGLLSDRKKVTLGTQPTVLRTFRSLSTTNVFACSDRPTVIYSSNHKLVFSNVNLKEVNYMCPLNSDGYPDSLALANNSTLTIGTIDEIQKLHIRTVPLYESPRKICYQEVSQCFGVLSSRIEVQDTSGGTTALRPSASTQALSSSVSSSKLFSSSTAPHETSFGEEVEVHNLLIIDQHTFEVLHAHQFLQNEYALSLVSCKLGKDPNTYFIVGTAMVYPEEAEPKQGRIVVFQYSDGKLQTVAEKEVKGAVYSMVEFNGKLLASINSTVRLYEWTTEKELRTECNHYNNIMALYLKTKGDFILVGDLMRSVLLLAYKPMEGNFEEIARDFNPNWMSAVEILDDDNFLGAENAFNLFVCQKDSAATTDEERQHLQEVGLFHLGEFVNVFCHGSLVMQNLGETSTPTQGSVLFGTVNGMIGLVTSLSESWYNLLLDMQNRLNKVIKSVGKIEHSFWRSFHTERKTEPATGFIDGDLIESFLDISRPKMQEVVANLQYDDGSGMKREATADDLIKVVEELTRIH
T2 sequence (Q13422 whole entry): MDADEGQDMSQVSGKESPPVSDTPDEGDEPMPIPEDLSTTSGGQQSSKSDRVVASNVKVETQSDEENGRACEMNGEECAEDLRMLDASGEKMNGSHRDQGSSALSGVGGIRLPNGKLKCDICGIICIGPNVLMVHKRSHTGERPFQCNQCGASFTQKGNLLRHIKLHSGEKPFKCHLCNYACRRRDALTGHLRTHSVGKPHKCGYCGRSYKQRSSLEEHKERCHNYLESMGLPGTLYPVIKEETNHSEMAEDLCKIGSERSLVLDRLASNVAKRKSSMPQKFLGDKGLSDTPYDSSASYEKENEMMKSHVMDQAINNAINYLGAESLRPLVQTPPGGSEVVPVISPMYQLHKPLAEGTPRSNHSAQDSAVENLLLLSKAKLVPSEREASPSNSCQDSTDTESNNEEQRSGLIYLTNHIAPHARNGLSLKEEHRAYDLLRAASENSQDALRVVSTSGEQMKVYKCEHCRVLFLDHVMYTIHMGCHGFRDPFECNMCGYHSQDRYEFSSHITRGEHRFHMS
T2 sequence (Q96SW2 whole entry): as the sequence (Q96SW2 whole entry) above
T2 sequence (Q16531 whole entry partner): as the sequence (Q16531 whole entry partner) above

`O=C1CCC(N2Cc3c(ccc(-c4cc(CN5CC(c6ccccc6)C5)ccn4)c3F)C2=O)C(=O)N1` (stereo not shown) [Comparative Compound A, 3-(4-fluoro-1-oxo-5-(4-((3-phenylazetidin-1-yl)methyl)pyridin-2-yl)isoindolin-2-yl) piperidine-2,6-dione, reference compound]: the 50% degradation concentration (DC50) was more than 10 µM in test [1]; more than 1 µM in test [2]; more than 10 µM in test [3]; more than 10 µM in test [4]; more than 1 µM in test [5].
As for `Nc1nc(-c2ccc3c(c2)CN(C2CCC(=O)NC2=O)C3=O)ccc1CN1CC2(CCC2)C1` (stereo not shown) [Comparative Compound B, 3-(5-(5-((2-azaspiro[3.3]heptan-2-yl)methyl)-6-aminopyridin-2-yl)-1-oxoisoindolin-2-yl) piperidine-2,6-dione, reference compound], the 50% degradation concentration (DC50) is more than 10 µM in test [1]; more than 1 µM in test [2]; more than 10 µM in test [3]; more than 10 µM in test [4]; more than 1 µM in test [5].
As to `Cc1nc2cccc(N)c2c(=O)n1C1CCC(=O)NC1=O` (stereo not shown) [avadomide], the “clinical response in patients with solid tumors” value (shortened to “clinical response in patients”) in test [6] is reported as “modest responses of stable disease”.
As for `Nc1cccc2c1CN(C1CCC(=O)NC1=O)C2=O` (stereo not shown) [lenalidomide], the “clinical response in patients” value in test [6] was “modest responses of stable disease”.
Turning to `Nc1cccc2c1C(=O)N(C1CCC(=O)NC1=O)C2=O` (stereo not shown) [pomalidomide], in test [6], the “clinical response in patients” value is on record as “modest responses of stable disease”.

Values taken from US20260335299A1, “SUBSTITUTED OXOISOINDOLINYL PIPERIDINE-2,6-DIONE COMPOUND AS ANTICANCER AGENT” (BRISTOL-MYERS SQUIBB COMPANY, priority 2023, published 2026).
